The text below walks through data of patent US20230250262A1, “CELLULOSIC PARTICLE” (FUJIFILM Business Innovation Corp., priority 2022, published 2023).

Counter-ions that a name gives are not always drawn.

The nature of one data set: Octanol/water partition coefficient (O/W coefficient) of the second component. Conditions: 1-octanol/water 1/1 by mass; value of the second component species.
Experimental: In this context, the octanol/water partition coefficient is a value calculated through the following.
A sample is dissolved in a mixture of octanol and water in a ratio by mass of 1/1, and the concentration of the substance in the octanol (Co) and the concentration of the substance in the water (Cw) are measured; then the octanol/water partition coefficient (O/W coefficient) is calculated according to equation (1) below.
O/W coefficient=Log(Co/Cw) (1)
The concentration of the substance in the octanol (Co) and the concentration of the substance in the water (Cw) are measured as follows.
The OECD test guideline is followed. More specifically, a sample is dissolved in a mixture of 1-octanol and water in a ratio by mass of 1/1, and the resulting solution is centrifuged until it completely separates into two layers. From the 1-octanol layer, an appropriate amount of octanol solution is pipetted. The tip of a syringe, into which air has been drawn in advance, is inserted into the water layer through the 1-octanol layer while the air is ejected, and the aqueous solution is sampled quickly.
For each solution, the test concentration is determined using an ion chromatograph (Metrohm, 930 Compact IC).
`CCCCCCCC/C=C\CCCCCCCC(=O)N(CCO)CCO` [Add1, oleic acid diethanolamide]: the “Second component Octanol/water partition coefficient” value is given as 6.
Same read-out and setting: under `CCCCCCCCCCCCCCCCCC(=O)N(CCO)CCO` [Add21, stearic acid diethanolamide] stands 11; under `CCCCCCCCCCCC(=O)NCC(C)O` (stereo not shown) [Add22, lauric acid monoisopropanolamide], 4; under `CCCCCCC(CCCC)(CCCC)Cc1ccc(O)cc1` [Add33, 4-2,2-dibutyl-octylphenol], 21.

Staying with this data set, now noted: 1-octanol/water (1/1 by mass).
The molecule `CCOC(=O)CC(O)(CC(=O)OCC)C(=O)OCC` [Add10, triethyl citrate, reference compound] registered a log partition coefficient (logP) of 0.9.
Turning to `CC(C)COC(=O)CCCCC(=O)OCC(C)C` [Add11, diisobutyl adipate, reference compound], the logP is 4.
For the molecule `CCCCCCCCCCCCc1ccc(O)cc1` [Add32, 4-dodecylphenol], the log partition coefficient (logP) was found to be 5.
